Experimental data: US5760036A, “Aminediol protease inhibitors” (E. R. Squibb & Sons, Inc., priority 1995, dated 1998)
Structures can show the parent of a compound that is named as a salt. Where two headings read alike, the source gives them in different places.

Key:
HIV protease = target: T1, HIV protease (Human immunodeficiency virus type 1 group M subtype B, UniProt P04585); experiment: HIV Protease Assay; type: biochemical
T1 construct: and purified protease
How it was run: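 At a single final concentration of 10 μM (4% DMSO), inhibitors were added to a 30-minute, 37° C reaction of purified enzyme with 450 μM H2N-Val-Ser-Gln-Asn-(β-naphthyl-alanine)-Pro-Val-Ile-OH at pH 5.5 (sodium acetate, BSA). Hydrolysis was quantified by reverse-phase HPLC with 220 nm detection after acid quench.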

[1] = tested on: RF strain of HIV (CEM-SS cells); experiment: Cell Culture Anti-HIV Activity (cell viability, formazan); type: cell-based; conditions: CEM-SS cells, RF strain of HIV, multiplicity of infection 0.04, 6 days at 37° C., 450 nm, read-out: HIV (CEM Cells) IC50
How it was run: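 Half-log compound dilutions added to CEM-SS cells (5000/well) carrying HIV RF (MOI 0.04), 6 days, 37° C. Cell protection measured as formazan from tetrazolium, A450. IC50: drug level restoring infected-cell formazan to 50% of the uninfected untreated control.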

[2] = pH 5.5, 10 μM inhibitor, 4% DMSO, 450 μM substrate, pH 5.5, 30 minutes at 37° C., RP-HPLC, read-out: HIV Protease % Inhibition at 10 μM
[3] = Human immunodeficiency virus 1, CEM-SS, 144 h
[4] = pH 5.5, read-out: HIV Protease % Inhibition at 10 μM

| Compound | inhibition at 10 µM (HIV protease; [2]) [%] | inhibition at 10 µM (HIV protease; [4]) [%] | IC50 [1, 3] [nM] | IC50 [1] [nM] |
| --- | --- | --- | --- | --- |
| CC(C)[C@H](NC(=O)OC1CCc2ccccc21)C(=O)N[C@@H](Cc1ccccc1)[C@H](O)CNC[C@@H](O)[C@H](Cc1ccccc1)NC(=O)OC(C)(C)C (stereo partly drawn) [Compound 67, [S-[1R*,2S*(2S*,3R*)]]-N^2-[[2,3-Dihydro-1H-inden-1-yl)oxy]carbonyl]-N-[3-[[3-[[(1,1-dimethylethoxy)carbonyl]amino]-2-hydroxy-4-phenylbutyl]amino]-2-hydroxy-1-(phenylmethyl)propyl]-L-valinamide] | 100 |  | 40 |  |
| CC(C)(C)OC(=O)N[C@@H](CC1CCCCC1)[C@H](O)CNC[C@@H](O)[C@H](CC1CCCCC1)NC(=O)OC(C)(C)C [Compound 14, [R-(R*,S*)]-[Iminobis[1-(cyclohexylmethyl)-2-hydroxy-3,1-propanediyl]]-biscarbamic acid, bis(1,1-dimethylethyl) ester] |  | 100 | 1100 |  |
| CC(C)(C)OC(=O)N[C@@H](Cc1ccccc1)[C@H](O)CNC[C@@H](O)[C@H](Cc1ccccc1)NC(=O)[C@@H](NC(=O)OCc1ccccc1)C(C)(C)C [Compound 88, [1S-[1R*-[1R*,2S*(2S*,3R*)]]]-2,2-Dimethyl-1-[[[3-[[3-[[(1,1-Dimethylethoxcy)-carbonylamino]-2-hydroxy-4-phenylbutyl]amino]-2-hydroxy-1-(phenylmethyl),propyl]amino]-carbonyl]propoyl]carbamic acid, phenylmethyl ester] | 100 |  | 30 |  |
| C[C@H](NC(=O)OCc1nc2ccccc2[nH]1)C(=O)N[C@@H](Cc1ccccc1)[C@H](O)CNC[C@@H](O)[C@H](Cc1ccccc1)NC(=O)OC(C)(C)C (relative stereo) [Compound 220, [1R*,2S*(2S*,3R*)]-N^2-[[(2-Benzimidazolyl)methoxy]carbonyl]-N-[3-[[3-[[(1,1-dimethylethoxy)carbonyl]amino]-2-hydroxy-4-phenylbutyl]amino]-2-hydroxy-1-(phenylmethyl)propyl]-L-alaninamide] | 100 |  | 770 |  |
| CC(C)(C)OC(=O)N[C@@H](Cc1ccccc1)[C@H](O)CNC[C@@H](O)[C@H](Cc1ccccc1)NC(=O)C(=O)C(C)(C)C [Compound 213, [1S-[1R*,2S*(2S*,3R*)]]-[3-[[3-[(3,3-Dimethyl-1,2-dioxobutyl)amino]-2-hydroxy-4-phenylbutyl]amino]-2-hydroxy-1-(phenylmethyl)propyl]carbamic acid, 1,1-dimethylethyl ester] | 98 |  | 170 |  |
| CC(C)(C)OC(=O)N[C@@H](Cc1ccccc1)[C@H](O)CNC[C@@H](O)[C@H](Cc1ccccc1)NC(=O)[C@@H](NC(=O)OCc1cc2ccncc2o1)C(C)(C)C [Compound 339, [S-[1R*,2S*(2S*,3R*)]]-[2,2-Dimethyl-1-[[[3-[[3-[[(1,1-dimethylethoxy)carbonyl]amino]-2-hydroxy-4-phenylbutyl]amino]-2-hydroxy-1-(phenylmethyl)-propyl]amino]carbonyl]propyl]carbamic acid, (2-furo[2,3-c]pyridinyl) methyl ester] | 99 |  | 12 |  |
| CC(C)(C)OC(=O)N[C@@H](CCc1ccccc1)[C@H](O)CNC[C@@H](O)[C@H](Cc1ccccc1)NC(=O)OC(C)(C)C [Compound 25, [1S-[1R*,2S*(2S*,3R* )]]-[3-[[3-[[(1,1-Dimethylethoxy)carbonyl]amino]-2-hydroxy-4-phenylbutyl]amino]-2-hydroxy-1-(2-phenylethyl))propyl]carbarmic acid, 1,1-dimethylethyl ester] |  | 98 | 530 |  |
| CC(C)(C)OC(=O)N[C@@H](Cc1ccccc1)[C@H](O)CNC[C@@H](O)[C@H](Cc1ccc(OCc2ccccc2)cc1)NC(=O)OC(C)(C)C [Compound 179, [1S-[1R*,2S*(2S*,3R*)]]-[3-[[3-[[(1,1-Dimethylethoxy)carbonyl]amino]-2-hydroxy-4-phenylbutyl]amino]-2-hydroxy-1-[[4-(phenylmethoxy)-phenyl]methyl]propyl]carbamic acid, 1,1-dimethylethyl ester] | 99 |  | 170 |  |

Continued, in another order:

| inhibition at 10 µM (HIV protease; [2]) [%] | inhibition at 10 µM (HIV protease; [4]) [%] | Compound | IC50 [1, 3] [nM] | IC50 [1] [nM] |
| --- | --- | --- | --- | --- |
| 99 |  | CC(C)[C@H](NC(=O)[C@@H](N)Cc1ccccc1)C(=O)N[C@@H](Cc1ccccc1)[C@H](O)CNC[C@@H](O)[C@H](Cc1ccccc1)NC(=O)OC(C)(C)C [Compound 84, [S-[1R*,2S*(2S*,3R*)]-N-[3-[[3-[[(1,1-Dimethylethoxy)carbonyl]amino]-2-hydroxy-4-phenylbutyl]amino]-2-hydroxy-1-(phenylmethyl)propyl)-L-valyl]-L-phenylalanamide, fumarate (2:3) salt] | 1200 |  |
| 45 |  | CC[C@H](C)[C@H](NC(=O)OC(C)(C)C)[C@H](O)CNC[C@@H](O)[C@@H](NC(=O)OC(C)(C)C)[C@@H](C)CC [Compound 13, [R-(R*,S*)]-[Iminobis[2-hydroxy-1-(1-methylpropyl)-3,1-proyanediyl]]biscarbamic acid, 1,1-dimethylethyl ester] | 5300 |  |
| 100 |  | COC(=O)N[C@H](C(=O)N[C@@H](Cc1ccccc1)[C@H](O)CNC[C@@H](O)[C@H](Cc1ccccc1)NC(=O)[C@@H](NC(=O)OC)C(C)(C)C)C(C)(C)C (relative stereo) [Compound 324, 1S-(1S*,2R*)-N, N'-Iminobis[2-hydroxy-1-(phenylmethyl)-3,1-propanediyl]bis(imino)bis[1-(1,1-dimethylethyl)-2-oxo-2,1-ethanediyl]]biscarbamic acid, dimethyl ester] | 220 |  |
| 99 |  | CC(C)[C@H](NC(=O)[C@H](C)O)C(=O)N[C@@H](Cc1ccccc1)[C@H](O)CNC[C@@H](O)[C@H](Cc1ccccc1)NC(=O)OC(C)(C)C [Compound 225, [1S-[[1R*,2S*(2S*,3R*)],N^2-(R*)]-N-[3-[[3-[[(1,1-Dimethylethoxy)carbonyl]amino]-2-hydroxy-4-phenylbutyl]amino]-2-hydroxy-1-(phenylmethyl)propyl]-N^2-(2-hydroxy-1-oxo-propyl)-L-valinamide] | 500 |  |
|  | 100 | CC(C)(C)OC(=O)N[C@@H](Cc1ccccc1)[C@H](O)CNC[C@@H](O)[C@H](Cc1ccccc1)NC(=O)C1(O)CCCC1(C)C (single isomer, unassigned; isomer a) [Compound 321, [1S-[1R*,2S*(2S*,3R*)]]-[3-[[3-[[2,2-Dimethyl-1-hydroxycyclopentyl)-carbonyl]amino]-2-hydroxy-4-phenylbutyl]amino]-2-hydroxy-1-(phenylmethyl)propyl]carbamic acid, 1,1-dimethylethyl ester, isomer A] |  | 200 |
| 36 |  | O=C(N[C@@H](Cc1ccccc1)[C@H](O)CNC[C@@H](O)[C@H](Cc1ccccc1)NC(=O)c1ccccc1)c1ccccc1 [Compound 36, [S-(1R*,2S*)]-N,N'-[Iminobis[2-hydroxy-1-(phenylmethyl)-3,1-propanediyl]]bisbenzamide] | > 8000 |  |
| 100 |  | CC(C)(C)OC(=O)N[C@@H](Cc1ccccc1)[C@H](O)CNC[C@@H](O)[C@H](Cc1ccccc1)NC(=O)OC1(C)CCCC1 [Compound 159, [1S-(1R*,2S*)]-[Iminobis[2-hydroxy-1-(phenylmethyl)-3,1-propanediyl]]bis-[carbamic acid], 1,1-dimethylethyl 1-methyl-cyclopentyl ester] | 1300 |  |
